Experimental data published in patent US20190030053A1, “COMPOSITION FOR INCREASING EXPRESSION OF PGC-1alpha” (BENEBIOSIS CO., LTD., priority 2016, published 2019).

Key:
PGC-1α and related genes = experiment: Gene expression in brain and hippocampus of Parkinson's disease models; format: in vivo, rat; details: 6-OHDA SD rats, oral 0.1 mg/kg/day
From the text: In order to investigate the changes in gene expression and behavior improvement by the treatment with SL (3′-SL & 6′-SL) compositions in Parkinson's brain disease models, 13-week-old normal SD rats and Parkinson's brain disease models were purchased from Central Lab Animal (Korea). Water was freely accessible, and a commercially available pellet feed (Dooyeul Biotech, Korea) was given for one week. At 14 weeks of age, the SD rats were divided into four groups (composed of 8 animals per group): Eight 14-week-old male SD rats (normal rats; initial body weight, average 355.6±32.3 g) treated with a normal diet were used for a control group. […]
Sialyllactose or DW was orally administered daily. […] The dietary intake and body weight change were measured every 5 days. […]
The gene expression changes by the treatment with SL (3′-SL & 6′-SL) compositions were quantitatively compared in two main organs (brain and hippocampus) associated with bran diseases. RNA was extracted by TRIzol agent (Invitrogen). cDNA was synthesized by using RNA, which has been extracted as above and quantified, and a reverse transcription system (Promega, USA). The expression patterns of PGC-1α and related genes were measured by using pre-designed primers and probes (Applied Biosystems; PGC-1α, Mm00447181_m1, GAPDH, and Mm99999915_q1) for the synthesized cDNA and analysis targets (Fndc5, PGC-1α, Erra, UCP1, BDNF, SOD2, and GPX1). […]

[1] = tested on: 6-OHDA induced SD rat Parkinson's disease models; experiment: Behavioral ability tests (corner turn and descent, vertical grating device) in Parkinson's disease models; format: in vivo; details: 6-OHDA SD rats, oral 0.1 mg/kg/day
From the text: In order to investigate the changes in gene expression and behavior improvement by the treatment with SL (3′-SL & 6′-SL) compositions in Parkinson's brain disease models, 13-week-old normal SD rats and Parkinson's brain disease models were purchased from Central Lab Animal (Korea). Water was freely accessible, and a commercially available pellet feed (Dooyeul Biotech, Korea) was given for one week. At 14 weeks of age, the SD rats were divided into four groups (composed of 8 animals per group): Eight 14-week-old male SD rats (normal rats; initial body weight, average 355.6±32.3 g) treated with a normal diet were used for a control group. The 6-OHDA induced SD rat Parkinson's disease models, which were administered with 6-hydroxydopamine (6-OHDA) at 8 weeks of age and supplied at 13 weeks of age, were randomly divided into three different dietary treatment groups below (8 animals per group), and these diets were maintained from 14 weeks of age for 10 weeks (total 32 animals): • Control group: Normal rats fed with a normal diet without SL administration (8 animals) • (Parkinson's disease model) group: Parkinson's disease models fed with a normal diet without SL administration (8 animals) • (Parkinson's disease model+3′-SL) group: Parkinson's disease models treated with 3′-sialyllactose (3′-SL, Sigma) (oral administration of 0.1 mg per kg of rat weight per day) in addition to the normal diet group (8 animals) • (Parkinson's disease model+6′-SL) group: Parkinson's disease models treated with 6′-sialyllactose (6′-SL, Sigma) (oral administration of 0.1 mg per kg of rat weight per day) in addition to the normal diet group (8 animals)
In FIG. 8, the vertical axis represents the corner turn time and the descent time as a result of carrying out behavioral ability tests (corner turn and descent) using a vertical grating device on a control group, (Parkinson's disease model) group, (Parkinson's disease model+3′-SL) group, and (Parkinson's disease model+6′-SL) group. The vertical grating device was in the form of an opened box of 5 cm×55 cm×8 cm, and the frant face was formed of a wiring of 0.8 cm×0.8 cm and the other surfaces were formed of black plexiglass. The bottom was made 5 cm longer for safety. In the test, the […] were placed in an upward direction at a distance of 3 cm from the top of the device, and were allowed to acclimate to the device three times for two days before testing. The above procedure was repeated if the rat could not come down within 60 seconds. The corner turn time is the time it takes for a rat facing upwards to turn downwards, and the descent time is the time obtained by subtracting the corner turn time from the overall test time for which the rat turns at the corner and descends to the bottom.

telomerase = experiment: Telomerase activity (TRAP) in vitro, MASMs of aging stimulation models; format: cell-based, mouse; details: MASMs of aging stimulation model control group, cultured 1 day with SL
Protocol: In FIGS. 18a and 18b, the telomerase activity was measured using TRAP protocol (Wright et al., 1995). In summary, cell pellets were lysed in CHAPS lysis solvent (containing ribnuclease inhibitor), followed by incubation at 4° C. for 30 minutes. Cell extracts ([…]) were TRAPeze reaction mix (telomerase substrate (TS) primer, fluorescent-labeled RP (reverse) primer, control standard template, and sulforhodamine-labeled standard K2 primer). The TS primer was elongated at 30° C. for 30 minutes, and then PCR was performed. The fluorescence of the thus obtained TRAP product was measured using a fluorescent plate reader to quantify telomerase activity. Relative telomerase activity was normalized by the ratio of native […] to sulforhodamine (internal control standard), expressed as a percentage. Fluorescein (M0250) was purchased from Marker Gene Technologies, Inc. H2-dichlorofluorescin diacetate (DCFDA) was purchased from Molecular Probes. MitoSOX™ Red, MitoTracker Green FM, and MitoTracker® Orange CMTMRos (MTO) were purchased from Invitrogen. 10,000× SYBR® Gold dye was purchased from Molecular Probes, Inc. Nuclear/Cytosol fractionation kit (K266-100) was purchased from BioVision. TRAPeze® XL telomerase detection kit (S7707) was purchased from MILLIPORE. Telomere PNA FISH Kit/Cy3 (K5326) was purchased from Dako. […]

| Compound | expression levels of PGC-1α and related genes vs SL non-administration (Parkinson's disease model) group (PGC-1α and related genes) | expression levels of PGC-1α and related genes vs normal control group (PGC-1α and related genes) | corner turn time [1] | descent time [1] | telomerase activity in MASMs (in vitro) (telomerase) |
| --- | --- | --- | --- | --- | --- |
| CC(=O)N[C@H]1[C@H]([C@H](O)[C@H](O)CO)O[C@@](OC[C@H]2O[C@@H](O[C@H]3[C@H](O)[C@@H](O)[C@H](O)O[C@@H]3CO)[C@H](O)[C@@H](O)[C@H]2O)(C(=O)O)C[C@@H]1O [6′-SL, α-NeuNAc-(2→6)-β-D-Gal-(1→4)-D-Glc] | very high | somewhat lower | almost similar to those in the control group | almost similar to those in the control group | increased telomerase activity |
| CC(=O)N[C@H]1[C@H]([C@H](O)[C@H](O)CO)O[C@@](O[C@H]2[C@@H](O)[C@@H](CO)O[C@@H](O[C@H]3[C@H](O)[C@@H](O)C(O)O[C@@H]3CO)[C@@H]2O)(C(=O)O)C[C@@H]1O (stereo partly drawn) [3′-SL, α-NeuNAc-(2→3)-β-D-Gal-(1→4)-D-Glc] | relatively low compared with 6′-SL |  | relatively low compared with 6′-SL | relatively low compared with 6′-SL | increased telomerase activity |
